Where two headings read alike, the source gives them in different places. Bridge positions count the residues as written; N and C are the ends. Square brackets hold non-standard residues; d marks the D form. Peptide text beside a SMILES is read from it. Nle = CCCC[C@H](N)C(=O)O
Legend:
[1] = molecular target: T1, human Kv1.3 voltage-gated K+ channel (Homo sapiens, UniProt P22001); assay: cell-based; conditions: inhibition of thallium flux, CHO-DUKX cells with human Kv1.3; read-out: IC50
T1 construct: host or cells: CHO-DUKX

Kv1.3 = molecular target: T2, Kv1.3 (Homo sapiens, UniProt P22001); assay: cell-based; conditions: CHO cells, whole-cell patch clamp; read-out: Potency IC50 (nM) Kv1.3
T2 construct: expressed in transfected cells; host or cells: Chinese Hamster Ovary (CHO)

Rat whole blood = Rat whole blood (Rattus norvegicus, UniProt P15384)
[2] = inhibition of IL-17A release, thapsigargin, 24 Hr, at least 2 replicates

Rat whole blood, sequence (P15384 whole entry): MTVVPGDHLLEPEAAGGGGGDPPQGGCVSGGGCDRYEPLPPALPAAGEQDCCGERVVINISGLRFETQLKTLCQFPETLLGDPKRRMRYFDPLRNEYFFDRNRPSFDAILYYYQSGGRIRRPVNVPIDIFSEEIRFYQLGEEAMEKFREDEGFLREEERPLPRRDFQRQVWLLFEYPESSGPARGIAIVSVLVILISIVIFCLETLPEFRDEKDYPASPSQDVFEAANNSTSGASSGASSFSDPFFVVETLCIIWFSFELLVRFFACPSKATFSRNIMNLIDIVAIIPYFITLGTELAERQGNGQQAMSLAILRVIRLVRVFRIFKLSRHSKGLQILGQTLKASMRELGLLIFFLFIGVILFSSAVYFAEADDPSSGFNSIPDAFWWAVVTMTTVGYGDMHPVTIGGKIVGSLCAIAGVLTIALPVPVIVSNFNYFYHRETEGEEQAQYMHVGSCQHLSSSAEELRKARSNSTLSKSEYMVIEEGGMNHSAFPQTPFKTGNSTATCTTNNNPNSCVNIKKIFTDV
T2 sequence (P22001 whole entry): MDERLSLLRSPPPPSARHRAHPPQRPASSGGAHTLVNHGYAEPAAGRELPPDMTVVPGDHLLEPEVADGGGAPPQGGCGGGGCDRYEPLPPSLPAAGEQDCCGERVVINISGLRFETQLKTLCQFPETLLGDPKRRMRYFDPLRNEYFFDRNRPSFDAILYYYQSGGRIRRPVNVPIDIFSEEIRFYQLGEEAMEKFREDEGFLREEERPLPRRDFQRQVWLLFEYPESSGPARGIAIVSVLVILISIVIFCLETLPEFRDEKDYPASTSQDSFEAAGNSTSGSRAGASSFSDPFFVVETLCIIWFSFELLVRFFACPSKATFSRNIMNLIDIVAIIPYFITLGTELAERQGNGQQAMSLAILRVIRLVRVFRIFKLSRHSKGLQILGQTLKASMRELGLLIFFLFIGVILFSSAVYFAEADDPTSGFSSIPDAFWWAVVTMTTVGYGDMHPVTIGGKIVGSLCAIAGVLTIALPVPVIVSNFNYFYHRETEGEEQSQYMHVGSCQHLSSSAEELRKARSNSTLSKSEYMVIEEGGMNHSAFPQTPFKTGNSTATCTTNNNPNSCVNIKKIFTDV
T1 sequence (P22001 whole entry): as above

Row | Structure (SMILES) | IC50 [1] [nM] | IC50 (Kv1.3) [nM] | IC50 (Rat whole blood) [nM] | IC50 (Rat whole blood; [2]) [nM]
1 | CCCC[C@@H]1NC(=O)[C@@H]2CSSC[C@H](NC(=O)[C@H](CCCNC(=N)N)NC(=O)[C@H](CCCC)NC(=O)[C@H](CC(=O)O)NC(=O)[C@H](CCCC)NC(=O)[C@@H](N)Cc3ccc(O)cc3)C(=O)N[C@@H](CO)C(=O)N[C@@H](C)C(=O)N[C@@H](CO)C(=O)N[C@@H](C(C)C)C(=O)N[C@@H](CCC(=O)O)C(=O)N[C@H]3CSSC[C@H](NC(=O)[C@H](CCCCN)NC(=O)[C@H](CCCCN)NC(=O)[C@H](CC(N)=O)NC1=O)C(=O)N[C@@H](CCCCN)C(=O)N[C@H](C(=O)N[C@@H](Cc1ccc(O)cc1)C(=O)N1CCC[C@H]1C(=O)N[C@@H](CCCNC(=N)N)C(N)=O)CSSC[C@H](NC(=O)[C@H](CCCCN)NC(=O)[C@H](CCC(N)=O)NC(=O)[C@H](CCCCN)NC3=O)C(=O)N[C@@H](CC(C)C)C(=O)N[C@@H](CCCCN)C(=O)N[C@@H](C)C(=O)N[C@@H]([C@@H](C)CC)C(=O)NCC(=O)N[C@@H](CO)C(=O)N[C@@H]([C@@H](C)CC)C(=O)N[C@@H](Cc1ccccc1)C(=O)NCC(=O)N[C@@H](CCCCN)C(=O)N2 [Compound 65] (H-Y[Nle]D[Nle]RCSASVECKQKCLKAIGSIFGKC[Nle]NKKCKCYPR-NH2; disulfide 6-27, 12-32, 16-34) | 0.12 | 0.14 | – | –
2 | CC[C@H](C)[C@@H]1NC(=O)[C@H](C)NC(=O)[C@H](CCCCN)NC(=O)[C@H](CCCNC(=N)N)NC(=O)[C@@H]2CSSC[C@@H](C(=O)N[C@@H](Cc3ccc(O)cc3)C(=O)N3CCC[C@H]3C(=O)N[C@@H](CCCNC(=N)N)C(N)=O)NC(=O)[C@H](CCCCN)NC(=O)[C@@H]3CSSC[C@H](NC(=O)[C@H](CCC(=O)O)NC(=O)[C@H](C(C)C)NC(=O)[C@H](CO)NC(=O)[C@H](C)NC(=O)[C@H](CO)NC(=O)[C@@H](NC(=O)[C@H](CCCNC(=N)N)NC(=O)[C@H](CCSC)NC(=O)[C@H](CC(=O)O)NC(=O)[C@H](CCSC)NC(=O)[C@@H](N)CC(N)=O)CSSC[C@H](NC(=O)[C@H](CCCCN)NC(=O)CNC(=O)[C@H](Cc4ccccc4)NC(=O)[C@H]([C@@H](C)CC)NC(=O)[C@H](CO)NC(=O)CNC1=O)C(=O)N[C@@H](CCSC)C(=O)N[C@@H](CC(N)=O)C(=O)N[C@@H](CCCCN)C(=O)N[C@@H](CCCCN)C(=O)N3)C(=O)N[C@@H](CCCCN)C(=O)N[C@@H](CCC(N)=O)C(=O)N[C@@H](CCCCN)C(=O)N2 [Compound 51] (H-NMDMRCSASVECKQKCRKAIGSIFGKCMNKKCKCYPR-NH2; disulfide 6-27, 12-32, 16-34) | 0.11 | 0.25 | – | –
3 | CC[C@H](C)[C@@H]1NC(=O)[C@H](Cc2ccc(O)cc2)NC(=O)[C@H](CCCCN)NC(=O)[C@H](CC(C)C)NC(=O)[C@@H]2CSSC[C@@H](C(=O)N[C@@H](Cc3ccc(O)cc3)C(=O)N3CCC[C@H]3C(=O)N[C@@H](CCCNC(=N)N)C(N)=O)NC(=O)[C@H](CCCCN)NC(=O)[C@@H]3CSSC[C@H](NC(=O)[C@H](CCC(=O)O)NC(=O)[C@H](C(C)C)NC(=O)[C@H](CO)NC(=O)[C@H](C)NC(=O)[C@H](CO)NC(=O)[C@@H](NC(=O)[C@H](CCCNC(=N)N)NC(=O)[C@H](CCSC)NC(=O)[C@H](CC(=O)O)NC(=O)[C@H](CCSC)NC(=O)[C@@H](N)CC(N)=O)CSSC[C@H](NC(=O)[C@H](CCCCN)NC(=O)CNC(=O)[C@H](Cc4ccccc4)NC(=O)[C@H]([C@@H](C)CC)NC(=O)[C@H](CO)NC(=O)CNC1=O)C(=O)N[C@@H](CCSC)C(=O)N[C@@H](CC(N)=O)C(=O)N[C@@H](CCCCN)C(=O)N[C@@H](CCCCN)C(=O)N3)C(=O)N[C@@H](CCCCN)C(=O)N[C@@H](CCC(N)=O)C(=O)N[C@@H](CCCCN)C(=O)N2 [Compound 55] (H-NMDMRCSASVECKQKCLKYIGSIFGKCMNKKCKCYPR-NH2; disulfide 6-27, 12-32, 16-34) | 0.12 | 0.12 | – | –
4 | CCCC[C@H](NC(=O)[C@H](CC(=O)O)NC(=O)[C@H](CCCC)NC(=O)[C@@H](N)CC(N)=O)C(=O)N[C@@H](CCCNC(=N)N)C(=O)N[C@H]1CSSC[C@@H]2NC(=O)[C@H](CCCCN)NC(=O)CNC(=O)[C@H](Cc3ccccc3)NC(=O)[C@H]([C@@H](C)CC)NC(=O)[C@H](CO)NC(=O)CNC(=O)[C@H]([C@@H](C)CC)NC(=O)[C@H](C)NC(=O)[C@H](CCCCN)NC(=O)[C@H](CC(C)C)NC(=O)[C@@H]3CSSC[C@@H](C(=O)N[C@@H](Cc4ccc(O)cc4)C(=O)N4CCC[C@H]4C(=O)N[C@@H](CCCNC(=N)N)C(N)=O)NC(=O)[C@H](CCCCN)NC(=O)[C@H](CSSC[C@H](NC(=O)[C@H](CCC(=O)O)NC(=O)[C@H](C(C)C)NC(=O)[C@H](CO)NC(=O)[C@H](C)NC(=O)[C@H](CO)NC1=O)C(=O)N[C@@H](CCCCN)C(=O)N[C@@H](CCC(N)=O)C(=O)N[C@@H](CCCCN)C(=O)N3)NC(=O)[C@H](CCCCN)NC(=O)[C@H](CCCCN)NC(=O)[C@H](CC(N)=O)NC(=O)[C@H](CCSC)NC2=O [Compound 39] (H-N[Nle]D[Nle]RCSASVECKQKCLKAIGSIFGKCMNKKCKCYPR-NH2; disulfide 6-27, 12-32, 16-34) | 0.11 | 0.15 | – | –
5 | CCCC[C@H](NC(=O)[C@H](CC(=O)O)NC(=O)[C@H](CCCC)NC(=O)[C@@H](N)CO)C(=O)N[C@@H](CCCNC(=N)N)C(=O)N[C@H]1CSSC[C@@H]2NC(=O)[C@H](CCCCN)NC(=O)CNC(=O)[C@H](Cc3ccccc3)NC(=O)[C@H]([C@@H](C)CC)NC(=O)[C@H](CO)NC(=O)CNC(=O)[C@H]([C@@H](C)CC)NC(=O)[C@H](C)NC(=O)[C@H](C)NC(=O)[C@H](CC(C)C)NC(=O)[C@@H]3CSSC[C@@H](C(=O)N[C@@H](Cc4ccc(O)cc4)C(=O)N4CCC[C@H]4C(=O)N[C@@H](CCCNC(=N)N)C(N)=O)NC(=O)[C@H](CCCCN)NC(=O)[C@H](CSSC[C@H](NC(=O)[C@H](CCC(=O)O)NC(=O)[C@H](C(C)C)NC(=O)[C@H](CO)NC(=O)[C@H](C)NC(=O)[C@H](CO)NC1=O)C(=O)N[C@@H](C)C(=O)N[C@@H](CCC(N)=O)C(=O)N[C@@H](CCCCN)C(=O)N3)NC(=O)[C@H](CCCCN)NC(=O)[C@H](CCCCN)NC(=O)[C@H](CC(N)=O)NC(=O)[C@H](CCSC)NC2=O [Compound 80] (H-S[Nle]D[Nle]RCSASVECAQKCLAAIGSIFGKCMNKKCKCYPR-NH2; disulfide 6-27, 12-32, 16-34) | 0.15 | 0.16 | – | –
6 | CC[C@H](C)[C@@H]1NC(=O)[C@H](C)NC(=O)[C@H](C)NC(=O)[C@H](CC(C)C)NC(=O)[C@@H]2CSSC[C@@H](C(=O)N[C@@H](Cc3ccc(O)cc3)C(=O)N3CCC[C@H]3C(=O)N[C@@H](CCCNC(=N)N)C(=O)O)NC(=O)[C@H](CCCCN)NC(=O)[C@@H]3CSSC[C@H](NC(=O)[C@H](CCC(=O)O)NC(=O)[C@H](C(C)C)NC(=O)[C@H](CO)NC(=O)[C@H](C)NC(=O)[C@H](CO)NC(=O)[C@@H](NC(=O)[C@H](CCCNC(=N)N)NC(=O)[C@H](CC(C)C)NC(C)=O)CSSC[C@H](NC(=O)[C@H](CCCCN)NC(=O)CNC(=O)[C@H](Cc4ccccc4)NC(=O)[C@H]([C@@H](C)CC)NC(=O)[C@H](CO)NC(=O)CNC1=O)C(=O)N[C@@H](CCSC)C(=O)N[C@@H](CC(N)=O)C(=O)N[C@@H](CCCCN)C(=O)N[C@@H](CCCCN)C(=O)N3)C(=O)N[C@@H](CCCCN)C(=O)N[C@@H](CCC(N)=O)C(=O)N[C@@H](CCCCN)C(=O)N2 [Compound 116] (Ac-LRCSASVECKQKCLAAIGSIFGKCMNKKCKCYPR-OH; disulfide 3-24, 9-29, 13-31) | 0.18 | – | ≤ 1 | 0.36
7 | CCCC[C@@H]1NC(=O)[C@@H]2CSSC[C@H](NC(=O)[C@H](CCCNC(=N)N)NC(=O)[C@H](CCC(=O)O)NC(=O)[C@H](CC(=O)O)NC(=O)[C@@H](NC(=O)[C@@H]3CCCN3)[C@@H](C)CC)C(=O)N[C@@H](CO)C(=O)N[C@@H](C)C(=O)N[C@@H](CO)C(=O)N[C@@H](C(C)C)C(=O)N[C@@H](CCC(=O)O)C(=O)N[C@H]3CSSC[C@H](NC(=O)[C@H](CCCCN)NC(=O)[C@H](CCCCN)NC(=O)[C@H](CC(N)=O)NC1=O)C(=O)N[C@@H](CCCCN)C(=O)N[C@H](C(=O)N[C@@H](Cc1ccc(O)cc1)C(=O)N1CCC[C@H]1C(=O)N[C@@H](CCCNC(=N)N)C(=O)O)CSSC[C@H](NC(=O)[C@H](CCCCN)NC(=O)[C@H](CCC(N)=O)NC(=O)[C@H](CCCCN)NC3=O)C(=O)N[C@@H](CC(C)C)C(=O)N[C@@H](C)C(=O)N[C@@H](C)C(=O)N[C@@H]([C@@H](C)CC)C(=O)NCC(=O)N[C@@H](CO)C(=O)N[C@@H]([C@@H](C)CC)C(=O)N[C@@H](Cc1ccccc1)C(=O)NCC(=O)N[C@@H](CCCCN)C(=O)N2 [Compound 100] (H-PIDERCSASVECKQKCLAAIGSIFGKC[Nle]NKKCKCYPR-OH; disulfide 6-27, 12-32, 16-34) | 0.85 | – | ≤ 1 | 0.87
8 | CCCC[C@@H]1NC(=O)[C@@H]2CSSC[C@H](NC(=O)[C@H](CCCNC(=N)N)NC(=O)[C@H](CCCC)NC(=O)[C@H](CC(=O)O)NC(=O)[C@H](CCCC)NC(=O)[C@@H](N)CO)C(=O)N[C@@H](CO)C(=O)N[C@@H](C)C(=O)N[C@@H](CO)C(=O)N[C@@H](C(C)C)C(=O)N[C@@H](CCC(=O)O)C(=O)N[C@H]3CSSC[C@H](NC(=O)[C@H](CCCCN)NC(=O)[C@H](CCCCN)NC(=O)[C@H](CC(N)=O)NC1=O)C(=O)N[C@@H](CCCCN)C(=O)N[C@H](C(=O)N[C@@H](Cc1ccc(O)cc1)C(=O)N1CCC[C@H]1C(=O)N[C@@H](CCCNC(=N)N)C(=O)O)CSSC[C@H](NC(=O)[C@H](CCCCN)NC(=O)[C@H](CCC(N)=O)NC(=O)[C@H](CCCCN)NC3=O)C(=O)N[C@@H](CC(C)C)C(=O)N[C@@H](CCCCN)C(=O)N[C@@H](C)C(=O)N[C@@H]([C@@H](C)CC)C(=O)NCC(=O)N[C@@H](CO)C(=O)N[C@@H]([C@@H](C)CC)C(=O)N[C@@H](Cc1ccccc1)C(=O)NCC(=O)N[C@@H](CCCCN)C(=O)N2 [Compound 82] (H-S[Nle]D[Nle]RCSASVECKQKCLKAIGSIFGKC[Nle]NKKCKCYPR-OH; disulfide 6-27, 12-32, 16-34) | 0.49 | – | ≤ 1 | 0.52

From patent publication US11780893B2, “Kv1.3 blockers” (Zealand Pharma A/S, priority 2019, dated 2023)
